How the values were obtained:
[1] = test system: GPR158 R173A, E271A, and Y269A mutants; assay: GAP BRET assay on GPR158 mutants defective in glycine binding; format: cell-based, human
Text: FIGS. 11A-11G. Probing Cache domain of GPR158 as a ligand binding site A) Computational docking of glycine into putative ligand binding pocket on GPR158 Cache domain. Glycine and directly interacting residues are shown as sticks. Hydrogen bonds and van der Waals interactions are shown as dotted lines. B) Diagram showing interactions in the docked model of glycine against GPR158 Cache domain. Hydrogen bonds are shown as dashed lines, van der Waals interactions are shown as intersecting semicircles, and the secondary structural context of Ser266 and Tyr269 is shown as an arc. Dagger indicates a residue implicated in glycine binding in 11A. […] Error bars are mean±s.e.m. of 3 independent experiments in triplicate. *p<0.05, **p<0.01, ***p<0.001, ****p<0.0001, ns=p>0.05, two-way ANOVA Columns with no fill (Ctrl), columns with angled-line fill (Glycine) E) Quantification of glycine inhibitory effect on kGAP normalized to the effect seen with WT receptor. […]
Cellular measurements of BRET between Venus-Gβ1γ2 and masGRK3ct-Nluc were performed to examine GAP activity of RGS protein in living cells (described in detail in Masuho et al., 2015 (40)). […] The BRET signal was determined by calculating the ratio of the light emitted by the Venus-Gβ1γ2 (535 nm with a 30 nm band path width) over the light emitted by the masGRK3ct-Nluc (475 nm with a 30 nm band path width). […]

GPR158 Y269A mutant = target: T1, GPR158 Y269A mutant (Homo sapiens, UniProt Q5T848, Y269A); assay: Radioligand binding assay on GPR158 mutant Y269A
T1 sequence (Q5T848 24-1215 Y269A): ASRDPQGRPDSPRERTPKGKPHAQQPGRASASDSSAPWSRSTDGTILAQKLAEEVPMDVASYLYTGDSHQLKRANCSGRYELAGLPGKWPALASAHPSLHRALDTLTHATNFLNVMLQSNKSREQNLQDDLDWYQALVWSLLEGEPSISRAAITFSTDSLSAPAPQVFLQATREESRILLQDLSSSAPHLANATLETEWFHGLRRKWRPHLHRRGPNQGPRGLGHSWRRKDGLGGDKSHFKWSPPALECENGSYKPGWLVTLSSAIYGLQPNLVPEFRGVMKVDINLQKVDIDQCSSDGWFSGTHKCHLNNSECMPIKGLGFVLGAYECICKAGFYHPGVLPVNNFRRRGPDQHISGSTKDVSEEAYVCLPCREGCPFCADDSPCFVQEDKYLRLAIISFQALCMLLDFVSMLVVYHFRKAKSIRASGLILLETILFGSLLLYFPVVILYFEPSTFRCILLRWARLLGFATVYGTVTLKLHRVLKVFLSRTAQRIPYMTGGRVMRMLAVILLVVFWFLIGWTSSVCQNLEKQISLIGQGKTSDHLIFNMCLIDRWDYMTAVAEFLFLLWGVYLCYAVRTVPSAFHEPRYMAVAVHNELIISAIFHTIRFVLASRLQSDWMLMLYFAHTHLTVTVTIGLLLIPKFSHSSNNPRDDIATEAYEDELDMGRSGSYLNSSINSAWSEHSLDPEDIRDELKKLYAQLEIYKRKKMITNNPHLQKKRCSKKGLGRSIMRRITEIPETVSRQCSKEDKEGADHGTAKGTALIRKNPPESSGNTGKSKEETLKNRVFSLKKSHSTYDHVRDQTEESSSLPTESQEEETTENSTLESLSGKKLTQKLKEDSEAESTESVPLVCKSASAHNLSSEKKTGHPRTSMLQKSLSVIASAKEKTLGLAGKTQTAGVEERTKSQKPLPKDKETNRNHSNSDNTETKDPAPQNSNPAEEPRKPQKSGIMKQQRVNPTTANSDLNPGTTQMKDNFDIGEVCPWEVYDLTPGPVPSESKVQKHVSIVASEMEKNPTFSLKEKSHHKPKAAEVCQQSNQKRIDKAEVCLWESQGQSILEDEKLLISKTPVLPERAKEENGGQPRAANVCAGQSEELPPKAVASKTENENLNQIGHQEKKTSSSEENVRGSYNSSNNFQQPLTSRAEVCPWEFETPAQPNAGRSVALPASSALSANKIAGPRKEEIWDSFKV
Text: FIGS. 11A-11G. Probing Cache domain of GPR158 as a ligand binding site A) Computational docking of glycine into putative ligand binding pocket on GPR158 Cache domain. Glycine and directly interacting residues are shown as sticks. Hydrogen bonds and van der Waals interactions are shown as dotted lines. B) Diagram showing interactions in the docked model of glycine against GPR158 Cache domain. Hydrogen bonds are shown as dashed lines, van der Waals interactions are shown as intersecting semicircles, and the secondary structural context of Ser266 and Tyr269 is shown as an arc. Dagger indicates a residue implicated in glycine binding in 11A. C) Radioligand binding assay of ^3H-glycine in cells expressing GPR158 mutants. Data shown mean±s.e.m. of 3 independent experiments, *p<0.05, ns=p>0.05 one-way ANOVA. D) Functional evaluation of GPR158 mutants in GAP BRET assay. Error bars are mean±s.e.m. of 3 independent experiments in triplicate. *p<0.05, **p<0.01, ***p<0.001, ****p<0.0001, ns=p>0.05, two-way ANOVA Columns with no fill (Ctrl), columns with angled-line fill (Glycine) E) Quantification of glycine inhibitory effect on kGAP normalized to the effect seen with WT receptor. […]
Whole cell binding was performed using cDNA of GPR158-venus or each GPR158-venus mutant or empty pcDNA3.1+ for ctrl cells. […] Finally radioactivity was measured using the liquid scintillation analyzer Tri-Carb 4910 TR.

SMILES	glycine inhibition of GAP activity of RGS7/Gβ5 [1]	[^3H]-glycine binding (GPR158 Y269A mutant)
NCC(=O)O [glycine]	lost an ability to inhibit the GAP-activity of RGS7/Gβ5	
NCC(=O)O [^3H-glycine, [^3H]-glycine]		near complete loss

— patent publication US20260376293A1, “METHODS FOR STUDYING GPR158 PHARMACOLOGY AND IDENTIFICATION OF ITS LIGANDS” (UNIVERSITY OF FLORIDA RESEARCH FOUNDATION, INCORPORATED, priority 2022, published 2026)
